Source: PMC11842024, “Reversible male contraception by targeted inhibition of serine/threonine kinase 33” (Science (New York, N.Y.), 2024)

What was measured:
Assay in all cases: NanoBRET K192 assay (Promega)
Assay type in all cases: cell-based
Parameters in all cases: host or cells: HEK293 (HEK293T cultured)
Settings in all cases: HEK293 cells
CLK2 = CLK2 (Homo sapiens, UniProt P49760)
Description: (§1) NanoBRET Target Engagement K192 assay. HEK293 cells (ATCC) were cultured in DMEM (Gibco) + 10% FBS (Seradigm) and incubated in a humidified 37°C/5% CO2 incubator. The NanoBRET Target Engagement K192 Kinase Selectivity System (Promega) contains 192 unique transfection-ready NanoLuc/Kinase fusions, pre-diluted in either transfection carrier DNA or relevant cyclin DNA. These NanoLuc/Kinase fusion constructs were transfected into HEK293 cells using Fugene HD (Promega) according to the manufacturer’s protocol. Briefly, 10 µL of a 20 µg/mL DNA solution was added to white, TC-treated 96-well assay plates (Corning), followed by 30 µL of a diluted Fugene HD solution (20 µL Fugene/1 mL Opti-MEM). After transfection complex formation, HEK293 cells were resuspended at 3.3 × 105 c/mL in Opti-MEM + 1% FBS and added at a volume of 60 µL per well, to result in approximately 20000 cells/well. Cells were incubated in a humidified 37°C/5% CO2 incubator for 20 hours. Tracer K-10 (Promega) was prepared at a 100× concentration in DMSO (Sigma) and diluted to a working concentration of 10× in tracer dilution buffer (12.5 mM HEPES, 31.25% PEG400, pH 7.5) (Promega). Test compounds were prepared as concentrated stock solutions in DMSO and diluted in Opti-MEM to prepare 10× working stocks. Cells were equilibrated with test compounds and Tracer K-10 for 2 hours prior to BRET measurements. For target engagement analysis, Tracer K-10 was added to cells at one of 4 […]
(§2) manufacturer’s protocol. To measure BRET, NanoBRET NanoGlo Substrate and Extracellular NanoLuc Inhibitor (Promega) were added according to the manufacturer’s protocol, and filtered luminescence was measured on a GloMax Discover luminometer equipped with 450 nm BP filter (donor) and 600 nm LP filter (acceptor), using 0.5 s integration time. Milli-BRET units are calculated by multiplying the raw BRET units by 1000.
(§3) For Fractional Occupancy determination, the following equation was used:
(§4) % Occupancy = [1-(X-Z)/(Y-Z)]×100
(§5) Where X = BRET in the presence of the test compound and Tracer K10, Y = BRET in the presence of Tracer K10 only, and Z = Full occupancy, or BRET in the absence of the test compound and […]
(§6) Tracer K10. […]

CLK1 = CLK1 (Homo sapiens, UniProt P49759)
Sequence of CLK1 (P49759 whole entry): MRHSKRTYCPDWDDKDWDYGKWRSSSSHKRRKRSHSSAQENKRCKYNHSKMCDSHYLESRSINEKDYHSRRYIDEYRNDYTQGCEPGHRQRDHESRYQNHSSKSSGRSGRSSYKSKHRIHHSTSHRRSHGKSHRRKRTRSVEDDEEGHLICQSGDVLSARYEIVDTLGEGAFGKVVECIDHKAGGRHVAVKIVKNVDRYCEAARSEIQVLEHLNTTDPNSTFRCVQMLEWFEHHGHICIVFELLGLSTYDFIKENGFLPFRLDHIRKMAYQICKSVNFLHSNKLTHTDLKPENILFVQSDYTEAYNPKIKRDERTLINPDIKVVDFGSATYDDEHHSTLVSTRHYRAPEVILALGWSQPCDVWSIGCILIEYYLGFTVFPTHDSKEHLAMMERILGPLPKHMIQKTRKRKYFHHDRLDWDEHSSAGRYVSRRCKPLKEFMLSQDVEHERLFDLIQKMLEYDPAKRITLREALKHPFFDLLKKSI
Description: as §1, §2, §3, §4, §5, §6

STK33 = STK33 (Homo sapiens, UniProt Q9BYT3)
Sequence of STK33 (Q9BYT3 whole entry): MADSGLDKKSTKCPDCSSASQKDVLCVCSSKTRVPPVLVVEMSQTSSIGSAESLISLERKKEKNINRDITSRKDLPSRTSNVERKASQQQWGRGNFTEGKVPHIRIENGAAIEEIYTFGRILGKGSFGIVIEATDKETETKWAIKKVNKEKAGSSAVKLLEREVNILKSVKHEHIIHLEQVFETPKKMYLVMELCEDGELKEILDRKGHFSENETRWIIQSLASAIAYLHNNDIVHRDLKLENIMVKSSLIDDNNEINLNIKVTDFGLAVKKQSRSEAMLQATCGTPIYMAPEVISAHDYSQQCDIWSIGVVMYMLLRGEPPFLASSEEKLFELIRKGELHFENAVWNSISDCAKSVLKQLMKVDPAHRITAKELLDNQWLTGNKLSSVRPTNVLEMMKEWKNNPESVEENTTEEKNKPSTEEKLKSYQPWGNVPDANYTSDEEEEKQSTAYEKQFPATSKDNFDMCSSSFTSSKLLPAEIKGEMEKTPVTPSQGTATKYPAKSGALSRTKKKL
Description: as §1, §2, §3, §4, §5, §6

CLK4 = CLK4 (Homo sapiens, UniProt Q9HAZ1)
Sequence of CLK4 (Q9HAZ1 whole entry): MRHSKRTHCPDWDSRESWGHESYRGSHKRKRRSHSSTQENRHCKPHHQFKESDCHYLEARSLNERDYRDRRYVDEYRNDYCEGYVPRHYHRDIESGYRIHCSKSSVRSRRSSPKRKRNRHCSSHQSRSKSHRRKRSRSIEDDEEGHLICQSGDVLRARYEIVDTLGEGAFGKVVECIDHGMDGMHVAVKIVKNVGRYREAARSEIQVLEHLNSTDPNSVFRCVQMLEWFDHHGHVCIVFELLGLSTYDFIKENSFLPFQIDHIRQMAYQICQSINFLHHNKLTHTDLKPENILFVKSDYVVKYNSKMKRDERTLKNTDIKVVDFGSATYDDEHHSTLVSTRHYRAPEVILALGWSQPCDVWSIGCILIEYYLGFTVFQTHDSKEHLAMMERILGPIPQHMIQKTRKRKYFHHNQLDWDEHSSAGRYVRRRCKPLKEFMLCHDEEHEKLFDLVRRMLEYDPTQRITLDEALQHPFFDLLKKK
Description: as §1, §2, §3, §4, §5, §6

RET = RET (Homo sapiens, UniProt P07949)
Sequence of RET (P07949 29-1114): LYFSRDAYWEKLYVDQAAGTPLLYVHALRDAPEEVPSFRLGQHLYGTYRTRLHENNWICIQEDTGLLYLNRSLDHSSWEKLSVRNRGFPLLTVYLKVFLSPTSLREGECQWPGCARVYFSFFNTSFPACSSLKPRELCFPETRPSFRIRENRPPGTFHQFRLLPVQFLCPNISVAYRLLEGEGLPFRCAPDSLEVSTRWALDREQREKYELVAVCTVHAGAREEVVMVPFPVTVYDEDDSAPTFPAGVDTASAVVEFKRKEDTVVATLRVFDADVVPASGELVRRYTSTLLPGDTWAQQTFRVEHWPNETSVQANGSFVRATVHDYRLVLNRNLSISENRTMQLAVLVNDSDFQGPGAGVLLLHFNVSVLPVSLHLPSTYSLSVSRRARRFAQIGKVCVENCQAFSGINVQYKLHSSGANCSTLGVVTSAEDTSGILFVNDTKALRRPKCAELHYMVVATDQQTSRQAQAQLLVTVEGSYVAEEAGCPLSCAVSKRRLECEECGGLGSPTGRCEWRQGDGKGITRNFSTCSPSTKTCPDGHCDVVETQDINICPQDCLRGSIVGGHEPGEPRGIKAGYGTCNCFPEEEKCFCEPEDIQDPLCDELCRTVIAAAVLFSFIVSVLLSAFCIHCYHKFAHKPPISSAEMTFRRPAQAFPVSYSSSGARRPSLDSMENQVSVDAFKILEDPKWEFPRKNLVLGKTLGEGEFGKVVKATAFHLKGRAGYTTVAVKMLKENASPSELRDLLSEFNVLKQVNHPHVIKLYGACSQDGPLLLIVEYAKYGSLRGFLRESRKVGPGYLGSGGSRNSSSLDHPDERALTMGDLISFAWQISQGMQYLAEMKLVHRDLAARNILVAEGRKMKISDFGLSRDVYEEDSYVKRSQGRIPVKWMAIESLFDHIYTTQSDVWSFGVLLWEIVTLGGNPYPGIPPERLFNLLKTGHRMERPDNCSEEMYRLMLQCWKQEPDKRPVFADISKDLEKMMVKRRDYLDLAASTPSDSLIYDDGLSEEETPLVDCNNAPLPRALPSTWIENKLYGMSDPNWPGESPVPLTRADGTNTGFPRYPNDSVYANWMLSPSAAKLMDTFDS
Description: as §1, §2, §3, §4, §5, §6

Sequence of CLK2 (P49760 whole entry, the tested form may be a part): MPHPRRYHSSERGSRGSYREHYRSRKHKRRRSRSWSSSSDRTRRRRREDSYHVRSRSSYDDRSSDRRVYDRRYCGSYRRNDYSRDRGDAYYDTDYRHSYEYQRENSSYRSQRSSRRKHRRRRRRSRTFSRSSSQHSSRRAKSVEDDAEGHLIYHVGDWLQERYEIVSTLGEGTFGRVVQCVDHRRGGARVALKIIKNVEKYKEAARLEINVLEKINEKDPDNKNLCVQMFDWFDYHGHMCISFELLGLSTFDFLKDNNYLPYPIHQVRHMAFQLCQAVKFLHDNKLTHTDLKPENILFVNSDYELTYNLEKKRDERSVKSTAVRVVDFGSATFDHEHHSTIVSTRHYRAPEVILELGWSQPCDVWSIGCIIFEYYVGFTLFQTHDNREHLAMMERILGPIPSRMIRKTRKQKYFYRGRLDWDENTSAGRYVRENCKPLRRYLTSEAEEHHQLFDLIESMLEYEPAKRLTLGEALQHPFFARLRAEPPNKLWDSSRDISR

`O=C(c1ccc2[nH]nc(C#Cc3ccccc3-c3ccccc3)c2c1)N1CC2(CCCNC2)C1` [CDD-2807] was tested, and the receptor occupancy at 1 µM (CLK2; HEK293, at 1 µM) was 89.7%, the “NanoBRET K192 assay % Occupancy CLK2” value (CLK2; at 1 µM) was > 80% and the receptor occupancy at 1 µM (CLK1; HEK293, at 1 µM) was 83.5 ± 0.1%. The “NanoBRET K192 assay % Occupancy CLK1” value (CLK1; at 1 µM) was > 80%, the receptor occupancy at 1 µM (STK33) was 95.9% and the receptor occupancy at 1 µM (CLK4; HEK293, at 1 µM) was 94.7 ± 0.1%. The “NanoBRET K192 assay % Occupancy CLK4” value (CLK4; at 1 µM) was > 80%, the receptor occupancy at 1 µM (RET; HEK293, at 1 µM) was 85.8 ± 0.2% and the “NanoBRET K192 assay % Occupancy RET” value (RET; at 1 µM) was > 80%.
